Experiment [1] has as its system T-bet. Nature of the experiment: T-bet mRNA and protein expression in OT-I cells. The experiment is classed as cell-based, mouse. The protocol:
FIG. 4. IL-12-Enhanced mTOR Phosphorylation Is Essential for T-bet-Determined Type I Effector Maturation of CD8^+ T Cells. (A-C) OT-I cells stimulated with Ag+B7.1 (±) IL-12 and rapamycin were evaluated for (A) mRNA for T-bet at the indicated time points by RT-PCR, (B) T-bet protein expression at the indicated time-points by ICS, and (C) T-bet protein expression by ICS before and after antigen recall. **p<0.0035; ***p<0.0005. (D) WT and Tbx21^−1− OT-I cells were stimulated with Ag+B7.1 (±) IL-12 and evaluated for IFN-γ production at the primary and secondary phase. ***p<0.0001. (E and F) OT-I cells stimulated with Ag+B7.1 (±) IL-12 and rapamycin were transduced with T-bet-ER retroviral vector (±) 4-HT (10 nM) and evaluated by ICS for (E) T-bet protein expression by ICS and (F) IFN-γ at secondary phase (168 hr). (G and H) OT-I cells stimulated with Ag+B7.1 (±) insulin (1 U/ml) and rapamycin were evaluated by ICS for (G) S6K phosphorylation at 48 hr and (H) T-bet expression at 72 hr. Experiments shown are representative of at least three (A, B, D, E, and F) and two (C, G, and H) independent experiments with similar outcomes. (Data are presented as mean±SEM).
Retroviral Transduction and T-Bet Induction. T-bet-ER RV (Estrogen Responsive Retro Viral Vector) was cotransfected into Platinum-E cells together with the retroviral packaging vector pCL-Eco using LipoD293 DNA in vitro transfection reagent (SignaGen Laboratories) following the manufacturer's instructions. The medium was replaced the following day, and retroviral supernatant was collected 3 days after transfection. For transduction, naive OT-I cells stimulated for 24 hr, were suspended in retroviral supernatant containing polybrene (8 μg/ml; Sigma-Aldrich), and were spin-transduced at 2200 rpm for 90 min at 30° C. After spin-transduction, cells were cultured in fresh medium containing the same polarizing milieu as before, along with the addition of 4-HT (10 nM). At the end of 72 hr after initial stimulation, cells were washed thrice and maintained in the absence of any stimulation but in the presence of 4-HT and IL-7 (10 ng/ml).
Because the sustained expression of T-bet is necessary and sufficient for imprinting type I effector cell fate (Matsuda et al., 2007) and mTOR inhibition reversed IL-12 imprinted type I effector maturation in OT-I cells (FIG. 3), we next sought to determine whether rapamycin treatment affects T-bet expression in OT-I cells by performing kinetic analysis of T-bet mRNA expression (FIG. 4A). […] Moreover, inhibition of mTOR activity at 12 hr was also able to achieve loss in T-bet expression, similar to the observed loss in type I effector maturation (FIG. 3E).

Experiment [2] deals with OT-I cells. Nature of the experiment: Type I effector functions (IFN-γ, CTL activity, Granzyme B) of OT-I cells, primary and secondary phase. The format is cell-based, mouse. The protocol:
FIG. 3. Sustained mTOR Activity Is Essential for Heritable Type I Effector Differentiation of CD8^+ T Cells. […] (D and E) OT-I cells were stimulated with Ag+B7.1 (±) IL-12 and rapamycin was added 12 hr after stimulation to evaluate cells for (D) S6K phosphorylation at 48 hr and (E) IFN-γ production at the primary and secondary phase. Experiments shown are representative of at least three (A and B) and two (C-E) independent experiments with similar outcomes. (Data are presented as mean±SEM.)
Stimulation of OT-1 Cells. Naive OT-I cells were stimulated with latex microspheres expressing H-2K^b/ovalbumin antigen and B7.1 according to known techniques. Naive OT-II cells were stimulated with anti-CD3-/anti-CD28-coated latex beads. In some experiments, the cell line derived from embryonic fibroblasts, namely, BOK (MEC.B7.SigOVA: expressing H-2K^b, OVAp and B7.1, were used as antigen-presenting cells to stimulate naive OT-I cells according to known techniques.
Evaluation of Secondary Antigen-Recall Responses In Vitro. For studying secondary antigen-recall response in vitro; OT-I cells harvested at 72 hr (primary) were washed thrice with medium and recultured (1×10^5/ml) for an additional 72 hr in a 24-well plate with IL-7 (10 ng/ml) only. At 144 hr the cells were harvested, washed thrice with medium, had numbers adjusted (5×10^5), and were restimulated with Ag/B7.1 only for an additional 24 hr (secondary stimulation). At 168 hr, the cells recovered were evaluated by flow cytometry and in vitro functional assay.
Because the presence of IL-12 during antigen stimulation augments mTOR activity and is deterministic for type I effector maturation, we analyzed whether sustained mTOR kinase activity is required for IL-12-programmed type I effector functions in OT-I cells. To do so, we stimulated naive OT-I cells with BOK±IL-12, and rapamycin and effector functions were analyzed from the primary and secondary activated OT-I pool. […] In addition, we observed a block in IL-12-induced IFN-γ production and CTL activity upon rapamycin treatment at 144 hr after primary stimulation.

The mark [3] stands for this setting: IFN-α, Ag+B7.1-stimulated OT-I cells.

In the case of IFN-α, the T-bet expression entry in experiment [1] (setting [3]) is “unable to enhance”. For the same molecule, the IFN-γ production result in experiment [2] (setting [3]) was “increases”.

B1: IL-12: interleukin-12, cytokine (signal 3) (protein, UniProt P43431 23-215; P43432 23-335, looked up)
Interleukin-12 subunit alpha: RVIPVSGPARCLSQSRNLLKTTDDMVKTAREKLKHYSCTAEDIDHEDITRDQTSTLKTCLPLELHKNESCLATRETSSTTRGSCLPPQKTSLMMTLCLGSIYEDLKMYQTEFQAINAALQNHNHQQIILDKGMLVAIDELMQSLNHNGETLRQKPPVGEADPYRVKMKLCILLHAFSTRVVTINRVMGYLSSA
Interleukin-12 subunit beta: MWELEKDVYVVEVDWTPDAPGETVNLTCDTPEEDDITWTSDQRHGVIGSGKTLTITVKEFLDAGQYTCHKGGETLSHSHLLLHKKENGIWSTEILKNFKNKTFLKCEAPNYSGRFTCSWLVQRNMDLKFNIKSSSSSPDSRAVTCGMASLSAEKVTLDQRDYEKYSVSCQEDVTCPTAEETLPIELALEARQQNKYENYSTSFFIRDIIKPDPPKNLQMKPLKNSQVEVSWEYPDSWSTPHSYFSLKFFVRIQRKKEKMKETEEGCNQKGAFLVEKTSTEVQCKGGNVCVQAQDRYYNSSCSKWACVPCRVRS
With B1, the “Ag+B7.1-induced T-bet expression” value in experiment [1] (IL-12 addition, 24-96 hr) is “enhanced and sustained”. The “IFN-γ production and CTL activity” value in experiment [2] (IL-12 added to BOK-stimulated OT-I cells, 72 hr) is reported as “robust”.
